# What was measured:
# [1] = Cytotoxic effect against normal cell line; type: cell-based; details: human, normal cell line PSC-800-011; read-out: Cytotoxicity IC50, PSC-800-011
# Method: Following, the cytotoxic effect of compound 5e against a normal cell line, PSC-800–011, was also assigned to evaluate the selectivity of the compound towards the cancer cell lines. […] However, the selectivity index (SI) of compound 5e was also calculated to confirm its selectivity. It was known that any sample that has an SI value higher than 3 will be considered to have high selectivity.
# SR cells [2] = assay: Cell cycle analysis (propidium iodide staining); type: cell-based
# Method: This test was performed using propidium iodide (PI) staining following the detailed procedure in the supporting information (SI 3)[38].
# The topoisomerase II inhibitory evaluation, besides the cytotoxicity results of the new compounds, encouraged us to assess the effect of 5e (the most promising candidate) on cell cycle progression in SR cells.
# (§1) SI 3. Cell cycle analysis
# (§2) Leukemia SR cells were grown in six-well plates (each one contains 2 x 10^5 cells per well) containing 10% fetal bovine serum and incubated for 24 h at 37 °C and 5% CO2. The medium was replaced with (DMSO 1% v/v) containing the 3.1 µM of compound 5e, then incubated for 48 h, collected and washed with cold phosphate buffered saline (PBS). After fixation of the collected cells with ice-cold absolute ethanol (70%), the cells were rinsed with PBS then stained with the DNA fluorochrome PI, kept for 15 min at 37 °C. Then samples were analyzed with a FACS Caliber flow cytometer.
# (§3) SI 4. Detection of apoptosis
# (§4) Apoptotic activity of compound 5e was evaluated using Annexin V-FITC/PI apoptosis detection kit.
# (§5) Leukemia SR cells ([…]) were seeded and incubated with compound 5e for 48 h, trypsinized, collected and washed with phosphate-buffered saline (PBS) several times; SR cells were stained with Annexin V fluorescein isothiocyanate (FITC) and counterstained with propidium iodide (PI) for 15 min at 37 °C in the dark using the apoptosis detection kit (BD Biosciences, San Jose, CA) according to the manufacturer's protocol. Then, Annexin V-FITC and PI binding were analysed by a FACS Caliber flow cytometer.
# (§6) SI 5.1. Animals and tumor cell line
# (§7) Adult female Swiss albino mice purchased from Theodor Bilharzia Research Institute, Giza, Egypt, with an average body weight of (18-23) g was used. Mice were housed under constant conditions of 12 h light/dark cycle in a […], with free access to standard laboratory mice food and water. […]
# SR cells [3] = assay: Apoptosis analysis (Annexin-V staining assay); type: cell-based
# Method: The apoptotic analysis was performed according to the detailed description in the supporting information (SI 4)[39].
# Annexin-V staining assay was applied to determine the apoptosis induced by compound 5e. […] In detail, 13.61% and 24.33% for the early phase and late phase of apoptosis, respectively, with respect to the control (0.44%, and 0.16%, respectively). Annexin V/PI staining histograms are supported in the supporting information (Figure SI 2).
# as §1, §2, §3, §4, §5, §6, §7
# [4] = tested on: Solid Ehrlich carcinoma (SEC); assay: In vivo anti-tumour activity in SEC-bearing mice; design: species or system Swiss albino mice; details: 6 mg/Kg B.W., IP
# Method: (§8) The full methodology of tumour induction, treatments, and blood measurements was carried out according to the described details in the supporting information (SI 5). Moreover, the experimental protocol was approved by the Research Ethics Committee at Suez Canal University (Approval number REC139/2022, Chemistry Department, Faculty of Science, Suez Canal University). […]
# as §6
# Adult female Swiss albino mice purchased from Theodor Bilharzia Research Institute, Giza, Egypt, with an average body weight of (18-23) g was used. Mice were housed under constant conditions of 12 h light/dark cycle in a […], with free access to standard laboratory mice food and water.
# All procedures related to care and maintenance of the animals were performed according to the international guiding principles for animal research and approved by Faculty of Science, Suez Canal University bioethics and animal ethics committee (Approval number REC-01-2022).
# Solid Ehrlich carcinoma (SEC) were got from the National Cancer Institute (Cairo University, Egypt). The tumor cell line was proliferated in mice through serial intraperitoneal (I.P.) transplantation of a volume of 0.2 mL physiological saline contains 1 × 10^6 viable cells for 24 h. SEC cells were collected 7 days after I.P. implantation. The harvested cells were diluted with saline to obtain a concentration of 5 × 10^6 viable SEC cells/mL. A volume of 0.2 mL saline contains 1 × 10^6 SEC cells […]
# (§9) that were I.P. implanted into each normal mouse. SEC cells (1 × 10^6 tumor cells/mouse) were implanted subcutaneously into the right thigh of the hind limb.
# (§10) The experimental animals were randomly divided into four groups. Group 1 served as the normal saline control. Group 2 served as the SEC control (1 × 10^6 cells/mouse). Group 3 served as the compound-treated group (6 mg/kg B.Wt., I.P.). Group 4 received the standard anticancer drug of […]
# (§11) survival were recorded daily until the 24th day in both treated and control groups. At the end of experiment, the blood of each group was collected under light anesthesia for estimation of hematological and biochemical assays. The anesthetized animals were then sacrificed for evaluation of the antitumor activity and histopathological examination.
# SI 5.2. Antitumor potentiality
# It includes tumor volume, weight, and tumor inhibition ration (TIR%). Time interval measurements of tumor volume using digital Vernier caliper (Tricle Brand, Shanghai, China). Measure tumor length and width using clipper and then calculate tumor volume using formulations V = (L x W x W)/2, where V is tumor volume, W is tumor width, L is tumor length. While TIR% was calculated according to the following equation: […]. […]
# [5] = Liver enzymes (ALT, AST) in SEC-bearing mice; type: in vivo, Swiss albino mice; details: 6 mg/Kg B.W., IP
# Method: as §8, §9, §10
# as §11, with “examination. […]” for “examination.”
# At the end of the experiment, animals from different groups were sacrificed, and blood samples were collected for determination of liver enzymes ALT, AST levels. Activities of aspartate aminotransferase (AST) and alanine aminotransferase (ALT) were evaluated using commercial kits (ELITech clinical systems, France). […]
compound,measurement,setting,value
"O=[N+]([O-])c1ccc(-c2nnc(N3c4ccccc4C=Cc4ccccc43)o2)cc1 [Compound 5e, 2-(5 h-Dibenzo[b,f]azepin-5-yl)-5–(4-nitrophenyl)-1,3,4-oxadiazole]",IC50,[1],43.9 ± 2.68 µM
same,Cell cycle arrest phase,SR cells [2],G1 phase
same,Cell levels in G1 phase,"SR cells [2]; 3.1 µM of compound 5e, 48 h, control 52.84%",61.29%
same,S phase % of the examined cells,"SR cells [2]; 3.1 µM of compound 5e, 48 h, untreated 34.18%",36.86%
same,Increase of the apoptosis ratio compared to the untreated cells,"SR cells [3]; concentration equivalent to IC50 (13.05 µM), 48 h",37.34%
same,Late phase of apoptosis,"SR cells [3]; concentration equivalent to IC50, control 0.16%",24.33%
same,Early phase of apoptosis,"SR cells [3]; concentration equivalent to IC50, control 0.44%",13.61%
same,Tumour inhibition ratio (TIR%),[4],62.7%
same,Solid tumour mass,[4]; SEC control 226 mg,96.3 mg
same,Tumour volume,[4]; SEC control 80.6 mm^3,30.1 mm^3
same,ALT,[5]; SEC control 65.9 U/L,39.8 U/L
same,AST,[5]; SEC control 71 U/L,35.6 U/L

# — PMC9848257, “Design and synthesis of novel rigid dibenzo[b,f]azepines through ring closure technique as promising anticancer candidates against leukaemia and acting as selective topoisomerase II inhibitors and DNA intercalators” (Journal of Enzyme Inhibition and Medicinal Chemistry, 2023)
